From patent US5089273A, “Ecteinascidins 729, 743, 745, 759A, 759B and 770” (priority 1990, dated 1992)
In brackets after ≈: the same amount, converted by molar mass.

Legend:
[1] = test system: B16 Melanoma; assay: Antitumor activity vs. B16 Melanoma; format: in vivo; conditions: 0.01 mg/kg; Table 5
[2] = test system: P388 leukemia; assay: In vivo P388 mouse leukemia test; conditions: for T/C (%): Table 4; for antitumor activity (in words): mouse, in vivo; for T/C: Example 6
Source text: Compounds of this invention are also active in vivo against P388 leukemia in mice. The P388 mouse leukemia test is described in detail in a publication by G. L. Neil et al., Cancer Treatment Reports, 63: 1971-1978 (1979).

[3] = test system: M. luteus; assay: Antimicrobial activity vs. M. luteus (disk zones of inhibition); format: cell-based; conditions: for zone of inhibition at 0.05 µg/disc / zone of inhibition at 0.1 µg/disc / zone of inhibition at 0.2 µg/disc / zone of inhibition at 0.4 µg/disc / zone of inhibition at 0.8 µg/disc / zone of inhibition at 1.6 µg/disc: Micrococcus luteus; for zone of inhibition at 0.05 µg/disc: 50 ng/6.35-mm disk; for zone of inhibition at 0.1 µg/disc: 100 ng/6.35-mm disk; for zone of inhibition at 0.2 µg/disc: 200 ng/6.35-mm disk; for zone of inhibition at 0.4 µg/disc: 400 ng/6.35-mm disk; for zone of inhibition at 0.8 µg/disc: 800 ng/6.35-mm disk; for zone of inhibition at 1.6 µg/disc: 1600 ng/6.35-mm disk; for antimicrobial activity (in words): dilutions accurate to within a factor of 2
Description: (§1) The antimicrobial activities (vs. M. luteus) and the cytotoxic activities (vs. CV-1 cells) of the ecteinascidins and ecteinascidin 743 derivatives are shown in Table 1 and 2. […] All of the derivatives of ecteinascidin 743 that were prepared have antimicrobial and cytotoxic activities.

[4] = test system: bacteria; assay: Antibacterial Activity (disk zone of inhibition, Example 4); format: cell-based
Source text: | Zone of inhibition (mm)

[5] = test system: CV-1 cells; assay: Cytotoxic activity vs. CV-1 cells (disk zones of inhibition); format: cell-based; conditions: Cercopithecidae, read-out: Zones of Inhibition; for zone of inhibition at 0.05 µg/disc: 50 ng/6.35-mm disk; for zone of inhibition at 0.1 µg/disc: 100 ng/6.35-mm disk; for zone of inhibition at 0.2 µg/disc: 200 ng/6.35-mm disk; for zone of inhibition at 0.4 µg/disc: 400 ng/6.35-mm disk; for zone of inhibition at 0.8 µg/disc: 800 ng/6.35-mm disk; for zone of inhibition at 1.6 µg/disc: 1600 ng/6.35-mm disk
Description: as §1

[6] = test system: Escherichia coli; assay: Antimicrobial Spectrum, zones of inhibition; format: cell-based; conditions: 10 μg/disk, 6.35-mm disk
[7] = test system: Sarcina lutea sens.; assay: Antimicrobial Spectrum, zones of inhibition; format: cell-based; conditions: Micrococcus luteus; 10 μg/disk; 6.35-mm disk
[8] = test system: Bacillus subtilis; assay: Antimicrobial Spectrum, zones of inhibition; format: cell-based; conditions: 10 μg/disk, 6.35-mm disk
[9] = test system: Saccharomyces cerevisiae; assay: Antimicrobial Spectrum, zones of inhibition; format: cell-based; conditions: 10 μg/disk, 6.35-mm disk
[10] = test system: Bacillus subtilis syn; assay: Antimicrobial Spectrum, zones of inhibition; format: cell-based; conditions: 10 μg/disk, 6.35-mm disk
[11] = test system: Staphylococcus aureus; assay: Antimicrobial Spectrum, zones of inhibition; format: cell-based; conditions: 10 μg/disk, 6.35-mm disk
[12] = test system: Klebsiella pneumoniae; assay: Antimicrobial Spectrum, zones of inhibition; format: cell-based; conditions: 10 μg/disk, 6.35-mm disk
[13] = test system: L1210 mouse leukemia cells; assay: L1210 Tube Dilution Assay; format: cell-based
Source text: The L1210 tube dilution assay is described in detail in a publication by L. H. Li, et al., Cancer Research, 39:4816 (1979). ID50 and ID90 refer to the concentration of ecteinascidin needed to inhibit cell growth by […], respectively.

[14] = test system: Penicillium oxalicum; assay: Antimicrobial Spectrum, zones of inhibition; format: cell-based; conditions: 10 μg/disk, 6.35-mm disk
[15] = test system: DNA; assay: biomedical induction assay (BIA), an assay for DNA interaction
[16] = test system: Pseudomonas aeruginosa; assay: Antimicrobial Spectrum, zones of inhibition; format: cell-based; conditions: 10 μg/disk, 6.35-mm disk
[17] = test system: Mycobacterium avium; assay: Antimicrobial Spectrum, zones of inhibition; format: cell-based; conditions: 10 μg/disk, 6.35-mm disk
[18] = test system: Sarcina lutea; assay: Antimicrobial Spectrum, zones of inhibition; format: cell-based; conditions: Micrococcus luteus; 10 μg/disk; 6.35-mm disk

Question: Which “T/C (%)” value [1] does the source give for `COc1cc2c(cc1O)CCN[C@]21CS[C@@H]2c3c(OC(C)=O)c(C)c4c(c3[C@H](COC1=O)N1[C@@H]2[C@@H]2N[C@@H](Cc3cc(C)c(OC)c(O)c32)[C@@H]1O)OCO4` [Ecteinascidin 729] here?
Answer: 246%

Question: And the “T/C (%)” value ([2]; 0.0038 mg/kg)?
Answer: 214%

Question: What about the “antitumor activity (in words)” value [2] of the same compound?
Answer: strong antitumor activity

Question: And the “antitumor activity (in words)” value ([2]; listed as Et 729)?
Answer: the most active antitumor agent

Question: And the zone of inhibition at 0.05 µg/disc [3]?
Answer: 7 mm

Question: And the zone of inhibition at 0.1 µg/disc [3]?
Answer: 8 mm

Question: And the zone of inhibition at 0.2 µg/disc [3]?
Answer: 11 mm

Question: What about the zone of inhibition at 0.4 µg/disc [3] of the same compound?
Answer: 15 mm

Question: What about the zone of inhibition at 0.8 µg/disc [3] of the same compound?
Answer: 16 mm

Question: What about the zone of inhibition at 1.6 µg/disc [3] of the same compound?
Answer: 18 mm

Question: And the “antimicrobial activity (in words)” value [3]?
Answer: approximately equivalent and represent the most potent compounds in the series

Question: What about the zone of inhibition at 0.063 µg/disc ([4]; 0.063 μg/disk) of the same compound?
Answer: 19 mm

Question: What about the zone of inhibition at 0.125 µg/disc ([4]; 0.125 μg/disk) of the same compound?
Answer: 20 mm

Question: And the zone of inhibition at 0.25 µg/disc ([4]; 0.250 μg/disk)?
Answer: 22 mm

Question: What about the zone of inhibition at 0.05 µg/disc [5] of the same compound?
Answer: 9 mm

Question: And the zone of inhibition at 0.1 µg/disc [5]?
Answer: 10 mm

Question: And the zone of inhibition at 0.2 µg/disc [5]?
Answer: 10 mm

Question: What about the zone of inhibition at 0.4 µg/disc [5] of the same compound?
Answer: 13 mm

Question: And the zone of inhibition at 0.8 µg/disc [5]?
Answer: 16 mm

Question: What about the zone of inhibition at 1.6 µg/disc [5] of the same compound?
Answer: 18 mm

Question: Which zone of inhibition at 10 µg/disc [6] does the source give for `COc1cc2c(cc1O)CCN[C@]21CS[C@@H]2c3c(OC(C)=O)c(C)c4c(c3[C@H](COC1=O)N1[C@@H]2[C@H]2c3c(cc(C)c(OC)c3O)C[C@@H]([C@@H]1O)N2C)OCO4` [Ecteinascidin 743] here?
Answer: 11 mm

Question: What about the zone of inhibition at 10 µg/disc [7] of the same compound?
Answer: 35 mm

Question: And the zone of inhibition at 10 µg/disc [8]?
Answer: 25 mm

Question: And the zone of inhibition at 10 µg/disc [9]?
Answer: 0 mm

Question: What about the zone of inhibition at 10 µg/disc [10] of the same compound?
Answer: 26 mm

Question: And the zone of inhibition at 10 µg/disc [11]?
Answer: 19 mm

Question: What about the zone of inhibition at 10 µg/disc [12] of the same compound?
Answer: 20 mm

Question: What about the IC90 ([13]; L1210, concentration needed to inhibit cell growth by 90 percent, in vitro, read-out: ID90 (the source's name)) of the same compound?
Answer: 1.7 ng/mL (≈ 2.23 nM)

Question: And the IC50 ([13]; L1210, read-out: ID50)?
Answer: 0.5 ng/mL (≈ 0.656 nM)

Question: What about the zone of inhibition at 10 µg/disc [14] of the same compound?
Answer: 10 mm

Question: And the “T/C (%)” value ([2]; 0.015 mg/kg)?
Answer: 167%

Question: What about the T/C ([2]; 0.031 mg/kg) of the same compound?
Answer: 161

Question: And the T/C ([2]; 0.063 mg/kg)?
Answer: toxic

Question: What about the “result in biomedical induction assay (BIA)” value [15] of the same compound?
Answer: negative

Question: What about the zone of inhibition at 10 µg/disc [16] of the same compound?
Answer: 0 mm

Question: What about the zone of inhibition at 0.05 µg/disc [3] of the same compound?
Answer: 9 mm

Question: And the zone of inhibition at 0.1 µg/disc [3]?
Answer: 12 mm

Question: And the zone of inhibition at 0.2 µg/disc [3]?
Answer: 13 mm

Question: And the zone of inhibition at 0.4 µg/disc [3]?
Answer: 14 mm

Question: What about the zone of inhibition at 0.8 µg/disc [3] of the same compound?
Answer: 20 mm

Question: And the zone of inhibition at 1.6 µg/disc [3]?
Answer: 23 mm

Question: What about the “antimicrobial activity (in words)” value [3] of the same compound?
Answer: approximately equivalent and represent the most potent compounds in the series

Question: And the Zone of inhibition ([4]; 0.005 μg/disk)?
Answer: trace

Question: What about the zone of inhibition at 0.01 µg/disc ([4]; 0.01 μg/disk) of the same compound?
Answer: 7 mm

Question: And the zone of inhibition at 0.02 µg/disc ([4]; 0.02 μg/disk)?
Answer: 9 mm

Question: And the zone of inhibition at 0.05 µg/disc ([4]; 0.05 μg/disk)?
Answer: 12 mm

Question: And the zone of inhibition at 0.1 µg/disc ([4]; 0.1 μg/disk)?
Answer: 14 mm

Question: And the zone of inhibition at 0.2 µg/disc ([4]; 0.2 μg/disk)?
Answer: 17 mm

Question: What about the zone of inhibition at 0.05 µg/disc [5] of the same compound?
Answer: 14 mm

Question: And the zone of inhibition at 0.1 µg/disc [5]?
Answer: 16 mm

Question: What about the zone of inhibition at 0.2 µg/disc [5] of the same compound?
Answer: 20 mm

Question: And the zone of inhibition at 0.4 µg/disc [5]?
Answer: 23 mm

Question: And the zone of inhibition at 0.8 µg/disc [5]?
Answer: 23 mm

Question: And the zone of inhibition at 1.6 µg/disc [5]?
Answer: 28 mm

Question: What about the zone of inhibition at 10 µg/disc [17] of the same compound?
Answer: 17 mm

Question: And the zone of inhibition at 10 µg/disc [18]?
Answer: 27 mm
